In ChEMBL document CHEMBL1130977, “5-Aminomethylquinoxaline-2,3-diones. Part II: N-aryl derivatives as novel NMDA/glycine and AMPA antagonists” (Bioorg Med Chem Lett, 1998):

Experiments:
[1] = target: T1, Glutamate receptor ionotropic, AMPA (Rattus norvegicus) (UniProt P19491+P19492+P19493+P19490); test: Tested for in vitro binding affinity against AMPA receptor using [3H]AMPA binding assay; type: protein-complex assay
Glutamate NMDA receptor = test: Inhibition of [3H]MDL-105,519 binding to NMDA receptor glycine-binding site; type: protein-complex assay, Rattus norvegicus
[2] = target: Glutamate receptor ionotropic, AMPA (Rattus norvegicus, UniProt P19490+P19491+P19492+P19493); test: Tested for in vitro binding affinity against AMPA receptor using [3H]-AMPA binding assay; type: protein-complex assay
[3] = target: Glutamate NMDA receptor (Rattus norvegicus) (UniProt P35439+Q00959+Q00960+Q00961+Q62645+Q8VHN2+Q9R1M7); test: Inhibition of [3H]MDL-105519 binding to NMDA receptor glycine binding site; type: protein-complex assay; design: concentration or dose not given beside the values; details: concentration not given here
[4] = target: T1, Glutamate receptor ionotropic, AMPA (Rattus norvegicus); test: Tested for in vitro binding affinity against AMPA receptor using [3H]-AMPA binding assay at a concentration of 1 uM; type: protein-complex assay

With `O=[N+]([O-])c1cc(CN2CCC(O)C2)c2nc(O)c(O)nc2c1` (stereo unspecified) the Activity [1] was 330 nM.
In the case of `O=C(O)c1ccccc1NCc1cc([N+](=O)[O-])cc2nc(O)c(O)nc12`, the IC50 (Glutamate NMDA receptor) is reported as 50 nM and the IC50 [2] is reported as 50 nM.
`COC(=O)C1CCCC(NCc2cc([N+](=O)[O-])cc3nc(O)c(O)nc23)C1` (stereo unspecified) was tested, and the inhibition [3] was 30% and the IC50 [2] was 1300 nM.
`O=[N+]([O-])c1cc(CNCc2ccccn2)c2nc(O)c(O)nc2c1` was tested, and the inhibition [3] was 40% and the IC50 [2] was 3100 nM.
Work on `O=C(O)[C@@H]1CCCC[C@@H]1NCc1cc([N+](=O)[O-])cc2nc(O)c(O)nc12` yielded an inhibition [3] of 25% and an IC50 [2] of 670 nM.
`O=[N+]([O-])c1cc(CNc2ncccn2)c2nc(O)c(O)nc2c1` showed an inhibition [3] of 12% and an IC50 [2] of 380 nM.
Work on `NC(=O)[C@@H]1CCCC[C@@H]1NCc1cc([N+](=O)[O-])cc2nc(O)c(O)nc12` yielded an inhibition [3] of 25% and an IC50 [2] of 650 nM.
`O=[N+]([O-])c1cc(CNc2ccccn2)c2nc(O)c(O)nc2c1` showed an inhibition [3] of 0% and an IC50 [2] of 500 nM.
`O=[N+]([O-])c1cc(CNc2nccs2)c2nc(O)c(O)nc2c1` showed an inhibition [3] of 41% and an IC50 [2] of 190 nM.
`O=[N+]([O-])c1cc(CNc2ccccc2)c2nc(O)c(O)nc2c1` showed an IC50 (Glutamate NMDA receptor) of 1400 nM and an IC50 [2] of 1500 nM.
With `O=[N+]([O-])c1cc(CNc2cccc(F)c2)c2nc(O)c(O)nc2c1` the IC50 (Glutamate NMDA receptor) was 720 nM and the IC50 [2] was 1400 nM.
In the case of `O=[N+]([O-])c1cc(CNCc2ccncc2)c2nc(O)c(O)nc2c1`, the inhibition [3] is reported as 36% and the IC50 [2] is reported as 1400 nM.
`O=[N+]([O-])c1cc(CNc2cccnc2)c2nc(O)c(O)nc2c1` gave an inhibition [3] of 12% and an IC50 [2] of 970 nM.
`CCOC(=O)Cc1csc(NCc2cc(Br)cc3nc(O)c(O)nc23)n1` gave an inhibition [4] of 17% and an IC50 (Glutamate NMDA receptor) of 340 nM.
In the case of `COC(=O)c1ccccc1NCc1cc(Cl)cc2nc(O)c(O)nc12`, the inhibition [4] is reported as 0% and the inhibition [3] is reported as 25%.
`O=[N+]([O-])c1cc(CNc2ccc(F)cc2)c2nc(O)c(O)nc2c1` gave an IC50 (Glutamate NMDA receptor) of 750 nM and an IC50 [2] of 1200 nM.
`O=C(O)Cc1csc(NCc2cc([N+](=O)[O-])cc3nc(O)c(O)nc23)n1` showed an IC50 (Glutamate NMDA receptor) of 120 nM and an IC50 [2] of 180 nM.
Compound `O=C(O)c1ccccc1NCc1cc(Cl)cc2nc(O)c(O)nc12` has an IC50 (Glutamate NMDA receptor) of 30 nM and an IC50 [2] of 2000 nM.
Work on `CCOC(=O)Cc1csc(NCc2cc([N+](=O)[O-])cc3nc(O)c(O)nc23)n1` yielded an IC50 (Glutamate NMDA receptor) of 410 nM and an IC50 [2] of 1800 nM.
`O=C(O)C1CCCC(NCc2cc([N+](=O)[O-])cc3nc(O)c(O)nc23)C1` (stereo unspecified) gave an inhibition [3] of 21% and an IC50 [2] of 780 nM.
Compound `O=C(O)c1ccc(NCc2cc([N+](=O)[O-])cc3nc(O)c(O)nc23)cc1` has an inhibition [3] of 10% and an IC50 [2] of 1600 nM.
Work on `O=[N+]([O-])c1cc(CNc2cnccn2)c2nc(O)c(O)nc2c1` yielded an inhibition [3] of 59% and an IC50 [2] of 220 nM.
In the case of `O=C(O)Cc1csc(NCc2cc(Br)cc3nc(O)c(O)nc23)n1`, the IC50 (Glutamate NMDA receptor) is reported as 120 nM and the IC50 [2] is reported as 1450 nM.
`O=[N+]([O-])c1cc(CNc2ccccc2F)c2nc(O)c(O)nc2c1` was tested, and the IC50 (Glutamate NMDA receptor) was 500 nM and the IC50 [2] was 1400 nM.
In the case of `Oc1nc2cc(Br)cc(CNCc3ccccn3)c2nc1O`, the inhibition [3] is reported as 40% and the IC50 [2] is reported as 12000 nM.
In the case of `O=C(O)c1cccc(NCc2cc([N+](=O)[O-])cc3nc(O)c(O)nc23)c1`, the inhibition [3] is reported as 0% and the IC50 [2] is reported as 900 nM.
